Patent US11230541B2, “Heterocyclic compound” (Takeda Pharmaceutical Company Limited, priority 2017, dated 2022)

biological target: T1, NMDA receptor composed of four subunits including 2 sets of heterodimers of NR1 and NR2B (Homo sapiens, UniProt Q13224); assay: NR2B Ca2+ influx assay (FLIPR, Fluo-4) in HEK293 cells expressing human GRIN1 and GRIN2B; assay type: cell-based; details: HEK293, 10 μM final compound concentration, glutamic acid/glycine-induced Ca2+ influx, read-out: inhibitory rate (10 μM compound concentration)
T1 construct: host or cells: HEK293 (tetracycline-induced expression)
In short: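 Tetracycline-induced (2 h) HEK293 cells expressing human GRIN1/GRIN2B, Fluo-4-loaded, were preincubated 15 min at room temperature with compound at 10 μM final. FLIPR recorded Ca2+ influx every 3 s for 5 min after glutamate/glycine addition (30 μM in added buffer); inhibition from cumulative fluorescence relative to agonist-free wells.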

T1 sequence (Q13224 27-1484, other chains not shown): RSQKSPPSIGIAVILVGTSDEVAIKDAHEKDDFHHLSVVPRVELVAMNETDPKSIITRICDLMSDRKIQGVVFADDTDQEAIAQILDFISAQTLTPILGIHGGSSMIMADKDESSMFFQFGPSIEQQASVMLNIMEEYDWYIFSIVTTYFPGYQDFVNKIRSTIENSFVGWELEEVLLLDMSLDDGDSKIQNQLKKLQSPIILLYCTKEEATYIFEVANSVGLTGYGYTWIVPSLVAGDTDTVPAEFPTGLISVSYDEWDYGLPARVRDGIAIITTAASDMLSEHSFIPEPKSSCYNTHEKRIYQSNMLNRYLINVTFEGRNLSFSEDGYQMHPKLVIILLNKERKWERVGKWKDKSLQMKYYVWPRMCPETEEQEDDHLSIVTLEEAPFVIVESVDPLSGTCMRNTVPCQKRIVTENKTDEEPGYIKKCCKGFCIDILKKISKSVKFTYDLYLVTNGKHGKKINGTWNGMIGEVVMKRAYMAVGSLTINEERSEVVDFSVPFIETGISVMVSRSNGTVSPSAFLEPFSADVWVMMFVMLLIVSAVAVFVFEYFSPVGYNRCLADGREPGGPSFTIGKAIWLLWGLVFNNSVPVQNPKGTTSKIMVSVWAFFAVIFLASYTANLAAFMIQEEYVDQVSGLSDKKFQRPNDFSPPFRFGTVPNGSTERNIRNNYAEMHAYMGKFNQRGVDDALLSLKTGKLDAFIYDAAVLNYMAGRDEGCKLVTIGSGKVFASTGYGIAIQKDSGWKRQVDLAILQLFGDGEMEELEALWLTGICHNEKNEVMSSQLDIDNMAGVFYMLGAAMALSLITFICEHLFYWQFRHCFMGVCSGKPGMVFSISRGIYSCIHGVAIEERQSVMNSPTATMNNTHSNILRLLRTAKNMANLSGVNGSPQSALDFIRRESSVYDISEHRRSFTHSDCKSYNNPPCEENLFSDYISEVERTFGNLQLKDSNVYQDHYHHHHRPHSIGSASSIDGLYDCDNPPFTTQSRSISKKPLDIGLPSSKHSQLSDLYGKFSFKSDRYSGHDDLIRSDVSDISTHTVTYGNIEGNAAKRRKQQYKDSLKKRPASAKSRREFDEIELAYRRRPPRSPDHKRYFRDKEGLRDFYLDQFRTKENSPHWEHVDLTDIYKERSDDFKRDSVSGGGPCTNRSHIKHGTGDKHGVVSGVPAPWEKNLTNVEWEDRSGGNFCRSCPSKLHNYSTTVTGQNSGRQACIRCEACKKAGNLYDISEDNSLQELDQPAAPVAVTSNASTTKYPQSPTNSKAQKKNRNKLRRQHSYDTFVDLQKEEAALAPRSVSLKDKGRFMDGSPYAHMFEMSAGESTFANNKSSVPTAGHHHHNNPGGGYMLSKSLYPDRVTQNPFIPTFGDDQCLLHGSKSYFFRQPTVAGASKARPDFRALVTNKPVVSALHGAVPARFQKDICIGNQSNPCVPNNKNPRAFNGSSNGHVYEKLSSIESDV

inhibition at 10 µM [%] | SMILES
84 | COc1ccc(NC(=O)NCc2c(OC)ccc3ncn(C)c23)cc1F [Example 225, 1-(3-fluoro-4-methoxyphenyl)-3-((6-methoxy-1-methyl-1H-benzimidazol-7-yl)methyl)urea]
90 | COc1ncc(C(=O)NCc2c(C3CC3)ccc3ncn(C)c23)cc1F [Example 20, N-((6-cyclopropyl-1-methyl-1H-benzimidazol-7-yl)methyl)-5-fluoro-6-methoxynicotinamide]
51 | Cc1ccc(C(=O)NCc2cccc3[nH]ncc23)cc1F [Example 176, 3-fluoro-N-(1H-indazol-4-ylmethyl)-4-methylbenzamide]
91 | Cc1ccc(C(=O)NCc2c(C3CC3)ccc3[nH]ncc23)cc1C(F)(F)F [Example 84, N-((5-cyclopropyl-1H-indazol-4-yl)methyl)-4-methyl-3-(trifluoro-methyl)benzamide]
93 | O=C(NCc1c(C2CC2)ccc2[nH]nnc12)c1ccc(OC(F)(F)F)cc1 [Example 203, N-((5-cyclopropyl-1H-benzotriazol-4-yl)methyl)-4-(trifluoromethoxy)-benzamide]
67 | COc1ccc2ncn(C)c2c1CNC(=O)Nc1ccccc1 [Example 255, 1-((6-methoxy-1-methyl-1H-benzimidazol-7-yl)methyl)-3-phenylurea]
91 | COc1ncc(C(=O)NCc2c(C3CC3)ccc3[nH]nnc23)cc1F [Example 165, N-((5-cyclopropyl-1H-benzotriazol-4-yl)methyl)-5-fluoro-6-methoxynicotinamide]
89 | Cc1ccc2ncn(C)c2c1CNC(=O)c1cc(F)c(OC(F)F)c(F)c1 [Example 158, 4-(difluoromethoxy)-N-((1,6-dimethyl-1H-benzimidazol-7-yl)methyl)-3,5-difluorobenzamide]
78 | Cc1ccc2[nH]nnc2c1CNC(=O)c1cc(F)c(C)c(F)c1 [Example 196, 3,5-difluoro-4-methyl-N-((5-methyl-1H-benzotriazol-4-yl)methyl)benzamide]
93 | CCc1ccc2ncn(C)c2c1CNC(=O)c1cc(F)c(OC(F)F)c(F)c1 [Example 131, 4-(difluoromethoxy)-N-((6-ethyl-1-methyl-1H-benzimidazol-7-yl)methyl)-3,5-difluorobenzamide]
85 | COc1ccc2ncn(C)c2c1CNC(=O)Nc1ccc(F)c(F)c1 [Example 258, 1-(3,4-difluorophenyl)-3-((6-methoxy-1-methyl-1H-benzimidazol-7-yl)methyl)urea]
93 | O=C(NCc1c(C2CC2)ccc2[nH]ncc12)c1ccc(OC(F)F)c(Cl)c1 [Example 107, 3-chloro-N-((5-cyclopropyl-1H-indazol-yl)methyl)-4-(difluoromethoxy)-benzamide]
93 | O=C(NCc1c(C2CC2)ccc2[nH]ncc12)c1cc(Cl)c(Cl)s1 [Example 83, 4,5-dichloro-N-((5-cyclopropyl-1H-indazol-4-yl)methyl)thiophene-2-carboxamide]
91 | O=C(NCc1c(C2CC2)ccc2[nH]ncc12)c1ccc(C(F)(F)F)c(Cl)c1 [Example 89, 3-chloro-N-((5-cyclo-propyl-1H-indazol-4-yl)methyl)-4-(trifluoro-methyl)benzamide]
90 | Cc1ccc2[nH]nnc2c1CNC(=O)c1cc(F)c(Cl)c(F)c1 [Example 198, 4-chloro-3,5-difluoro-N-((5-methyl-1H-benzotriazol-4-yl)methyl)benzamide]

The next lines start with the compound.

SMILES | inhibition at 10 µM [%]
COc1ccc2ncn(C)c2c1CNC(=O)c1ccc(Cl)s1 [Example 36, 5-chloro-N-((6-methoxy-1-methyl-1H-benzimidazol-7-yl)methyl)-thiophene-2-carboxamide] | 89
COc1ccc2ncn(C)c2c1CNC(=O)c1ccc(OC(F)F)cc1F [Example 277, 4-(difluoromethoxy)-2-fluoro-N-[(6-methoxy-1-methyl-1H-benzimidazol-7-yl)methyl]benzamide] | 63
Cc1cc(C(=O)NCc2c(C3CC3)ccc3[nH]ncc23)ccc1F [Example 75, N-((5-cyclopropyl-1H-indazol-4-yl)methyl)-4-fluoro-3-methyl-benzamide] | 92
O=C(NCc1c(C2CC2)ccc2[nH]ncc12)c1ccc(Cl)s1 [Example 71, 5-chloro-N-((5-cyclopropyl-1H-indazol-4-yl)methyl)thiophene-2-carboxamide] | 92
O=C(NCc1cccc2[nH]ncc12)c1ccc(OC(F)(F)F)cc1 [Example 7, N-(1H-indazol-4-ylmethyl)-4-(trifluoromethoxy)benzamide] | 93
O=C(NCc1c(C2CC2)ccc2[nH]ncc12)c1ccc(OC(F)(F)F)cc1 [Example 62, N-((5-cyclopropyl-1H-indazol-4-yl)methyl)-4-(trifluoromethoxy)-benzamide] | 94
Cc1ccc2[nH]cnc2c1CNC(=O)c1ccc(OC(F)(F)F)cc1 [Example 3, N-((5-methyl-1H-benzimidazol-4-yl)methyl)-4-(trifluoromethoxy)benzamide] | 97
Cc1cc(C(=O)NCc2c(C3CC3)ccc3[nH]ncc23)cc(F)c1F [Example 76, N-((5-cyclopropyl-1H-indazol-4-yl)methyl)-3,4-difluoro-5-methyl-benzamide] | 93
COc1ccc2ncn(C)c2c1CNC(=O)Nc1ccc(Cl)cc1 [Example 257, 1-(4-chlorophenyl)-3-((6-methoxy-1-methyl-1H-benzimidazol-7-yl)methyl)urea] | 90
COc1ccc(NC(=O)NCc2c(OC)ccc3ncn(C)c23)cc1 [Example 266, 1-((6-methoxy-1-methyl-lH-benzimidazol-7-yl)methyl)-3-(4-methoxyphenyl)urea] | 58
COc1ccc(C(=O)NCc2c(C)ccc3[nH]nnc23)cc1 [Example 264, 4-methoxy-N-((5-methyl-1H-benzotriazol-4-yl)methyl)benzamide] | 83
Cc1ccc2ncn(C)c2c1CNC(=O)c1ccc(OC(F)F)c(Cl)c1 [Example 31, 3-chloro-4-(difluoromethoxy)-N-((1,6-dimethyl-1H-benzimidazol-7-yl)methyl)benzamide] | 91
COc1ccc2nc(C)n(C)c2c1CNC(=O)c1ccc(C(F)(F)F)cc1 [Example 237, N-((6-methoxy-1,2-dimethyl-1H-benzimidazol-7-yl)methyl)-4-(trifluoromethyl)-benzamide] | 68
O=C(NCc1cccc2[nH]ncc12)c1ccc(C(F)(F)F)c(F)c1 [Example 174, 3-fluoro-N-(1H-indazol-4-ylmethyl)-4-(trifluoromethyl)-benzamide] | 80
COc1ccc2ncn(C)c2c1CNC(=O)Nc1cccc(C(F)(F)F)c1 [Example 222, 1-((6-methoxy-1-methyl-lH-benzimidazol-7-yl)methyl)-3-(3-(trifluoromethyl)-phenyl)urea] | 55
COc1ccc2ncn(C)c2c1CNC(=O)Nc1ccc(C)cc1 [Example 256, 1-((6-methoxy-1-methyl-1H-benzimidazol-7-yl)methyl)-3-(4-methylphenyl)urea] | 90
O=C(NCc1c(C2CC2)ccc2[nH]ncc12)c1ccc(OC(F)(F)F)nc1 [Example 106, N-((5-cyclopropyl-1H-indazol-4-yl)-methyl)-6-(trifluoro-methoxy)nicotinamide] | 93
O=C(NCc1c(C2CC2)ccc2[nH]ncc12)c1ccc(C(F)F)cc1 [Example 98, N-((5-cyclopropyl-1H-indazol-4-yl)methyl)-4-(difluoromethyl)-benzamide] | 90
COCc1ccc2ncn(C)c2c1CNC(=O)c1ccc(C(F)(F)F)cc1 [Example 280, N-{[6-(methoxymethyl)-1-methyl-1H-benzimidazol-7-yl]methyl}-4-(trifluoromethyl)-benzamide] | 75
COc1ccc(C(=O)NCc2cccc3[nH]ncc23)cc1F [Example 181, 3-fluoro-N-(1H-indazol-4-ylmethyl)-4-methoxybenzamide] | 67
O=C(NCc1c(C2CC2)ccc2[nH]ncc12)c1ccc(OC(F)F)c(F)c1 [Example 120, N-((5-cyclopropyl-1H-indazol-4-yl)methyl)-4-(difluoromethoxy)-3-fluorobenzamide] | 92
CCc1ccc2[nH]nnc2c1CNC(=O)c1cc(F)c(OC)c(F)c1 [Example 206, N-((5-ethyl-1H-benzotriazol-4-yl)methyl)-3,5-difluoro-4-methoxybenzamide] | 95
Cc1ccc2ncn(C)c2c1CNC(=O)c1ccc(C(F)F)c(F)c1 [Example 136, 4-(difluoromethyl)-N-((1,6-dimethyl-1H-benzimidazol-7-yl)methyl)-3-fluorobenzamide] | 83
COc1ccc2ncn(C)c2c1CNC(=O)c1cc(Cl)c(Cl)s1 [Example 53, 4,5-dichloro-N-((6-methoxy-1-methyl-1H-benzimidazol-7-yl)-methyl)thiophene-2-carboxamide] | 91
CCOc1ncc(C(=O)NCc2c(OC)ccc3nc(C)n(C)c23)cc1F [Example 234, 6-ethoxy-5-fluoro-N-((6-methoxy-1,2-dimethyl-lH-benzimidazol-7-yl)methyl)nicotinamide] | 73
COc1ccc2nc(C)n(C)c2c1CNC(=O)c1ccc(OC(F)F)c(Cl)c1 [Example 244, 3-chloro-4-(difluoromethoxy)-N-((6-methoxy-1,2-dimethyl-lH-benzimidazol-7-yl)methyl)benzamide] | 87
COc1ccc2ncn(C)c2c1CNC(=O)c1ccc(C(F)F)cc1 [Example 123, 4-(difluoromethyl)-N-((6-methoxy-1-methyl-1H-benzimidazol-7-yl)methyl)benzamide] | 88
